According to ChEMBL document CHEMBL1201862, “PubChem BioAssay data set” (2004):
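Grown in 96-well plates, cells were treated for 48 hours with each compound at five concentrations. Insufficient inhibition: endpoint recorded as highest concentration tested. Abbreviation: GI50, concentration required for 50% inhibition of growth.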 The source made the active and inactive calls. Cut-off read from the data, not from the text of the source: active = GI50 up to about 1.1 µM and inactive = higher.

Experiments:
Assay in all cases: NCI-60 cell line screen, 48 h
[1] = test system: 786-0
[2] = test system: A549
[3] = test system: ACHN
[4] = test system: BT-549
[5] = test system: EKVX
[6] = test system: HL-60
[7] = test system: HT-29
[8] = test system: Hs-578T
[9] = test system: KM12
[10] = test system: MCF7
[11] = test system: MDA-N
[12] = test system: NCI-H460
[13] = test system: NCI-H522
[14] = test system: SK-MEL-28
[15] = test system: SK-MEL-2
[16] = test system: SK-OV-3
[17] = test system: SNB-19
[18] = test system: SW-620
[19] = test system: SF-268
[20] = test system: Malme-3M

Row | Compound | GI50 [1] | GI50 [2] | GI50 [3] | GI50 [4] | GI50 [5] | GI50 [6] | GI50 [7] | GI50 [8] | GI50 [9] | GI50 [10] | GI50 [11] | GI50 [12] | GI50 [13] | GI50 [14] | GI50 [15] | GI50 [16] | GI50 [17] | GI50 [18] | GI50 [19] | GI50 [20]
1 | CCOP(=O)(O)CN1CCNCCN(CP(=O)(O)OCC)CCNCC1 | > 100 µM (inactive) | > 100 µM (inactive) | > 100 µM (inactive) | > 100 µM (inactive) | > 100 µM (inactive) | 53 µM (inactive) | 61.9 µM (inactive) | > 100 µM (inactive) | > 100 µM (inactive) | > 100 µM (inactive) | > 100 µM (inactive) | > 100 µM (inactive) | > 100 µM (inactive) | > 100 µM (inactive) | > 100 µM (inactive) | > 100 µM (inactive) | > 100 µM (inactive) | > 100 µM (inactive) | – | –
2 | COC(=O)[C@H]1C[C@H]1NC(=O)C(CC(=O)OCc1ccccc1)NC(=O)OCc1ccccc1 (stereo partly drawn) | > 100 µM (inactive) | 43.8 µM (inactive) | 36.8 µM (inactive) | 23.4 µM (inactive) | 44.3 µM (inactive) | 17.9 µM (inactive) | 39 µM (inactive) | > 100 µM (inactive) | 31.6 µM (inactive) | 44.1 µM (inactive) | 60.1 µM (inactive) | 31.2 µM (inactive) | 40.8 µM (inactive) | 53.7 µM (inactive) | 18.6 µM (inactive) | 55 µM (inactive) | > 100 µM (inactive) | > 100 µM (inactive) | 55.2 µM (inactive) | –
3 | CN(C)c1ccc(/C=C(\C#N)C(N)=C(C#N)C#N)cc1 | > 100 µM (inactive) | > 100 µM (inactive) | > 100 µM (inactive) | > 100 µM (inactive) | > 100 µM (inactive) | > 100 µM (inactive) | > 100 µM (inactive) | > 100 µM (inactive) | > 100 µM (inactive) | > 100 µM (inactive) | > 100 µM (inactive) | > 100 µM (inactive) | > 100 µM (inactive) | 80 µM (inactive) | – | > 100 µM (inactive) | > 100 µM (inactive) | > 100 µM (inactive) | > 100 µM (inactive) | 32 µM (inactive)
4 | CN1COCc2cc3cc4c(cc3nc21)OCCO4 | > 100 µM (inactive) | > 100 µM (inactive) | > 100 µM (inactive) | 87.3 µM (inactive) | > 100 µM (inactive) | – | > 100 µM (inactive) | 0.0452 µM (active) | 41.5 µM (inactive) | 21.2 µM (inactive) | > 100 µM (inactive) | 44.8 µM (inactive) | > 100 µM (inactive) | – | > 100 µM (inactive) | > 100 µM (inactive) | > 100 µM (inactive) | > 100 µM (inactive) | > 100 µM (inactive) | 30 µM (inactive)
5 | CCn1c(CCl)nc2c1C(=O)c1ccccc1C2=O | 3.04 µM (inactive) | 3.4 µM (inactive) | 3.72 µM (inactive) | 2.18 µM (inactive) | 2.46 µM (inactive) | 2.43 µM (inactive) | 1.78 µM (inactive) | 2.29 µM (inactive) | 1.73 µM (inactive) | 1.87 µM (inactive) | 2.17 µM (inactive) | 1.98 µM (inactive) | 0.292 µM (active) | 1.76 µM (inactive) | – | 0.515 µM (active) | 1.87 µM (inactive) | 1.33 µM (inactive) | 2.61 µM (inactive) | 1.04 µM (active)
6 | CC(C)c1ccc2nc3ccc(C(=O)NCCN4CCN(c5ccccc5)CC4)cn3c(=O)c2c1 | 3.21 µM (inactive) | > 100 µM (inactive) | – | 6.3 µM (inactive) | > 100 µM (inactive) | – | 4.06 µM (inactive) | 4.93 µM (inactive) | 20.2 µM (inactive) | 10 µM (inactive) | 4.6 µM (inactive) | 4.3 µM (inactive) | 5.58 µM (inactive) | 2.82 µM (inactive) | – | > 100 µM (inactive) | > 100 µM (inactive) | 8.49 µM (inactive) | > 100 µM (inactive) | 1.85 µM (inactive)
7 | COC(=O)[C@@]1(Cc2ccc(O)cc2)C[C@@H]2Cc3ccccc3N2N1 | > 100 µM (inactive) | 81.7 µM (inactive) | > 100 µM (inactive) | 45 µM (inactive) | 64.7 µM (inactive) | – | 35.5 µM (inactive) | 68.4 µM (inactive) | > 100 µM (inactive) | 63.2 µM (inactive) | 44.8 µM (inactive) | – | 58.2 µM (inactive) | > 100 µM (inactive) | 25.4 µM (inactive) | > 100 µM (inactive) | > 100 µM (inactive) | > 100 µM (inactive) | > 100 µM (inactive) | 49 µM (inactive)
8 | O=c1[nH]c(NCc2cccnc2)nc2[nH]cnc12 | > 100 µM (inactive) | > 100 µM (inactive) | > 100 µM (inactive) | > 100 µM (inactive) | > 100 µM (inactive) | – | > 100 µM (inactive) | > 100 µM (inactive) | > 100 µM (inactive) | > 100 µM (inactive) | > 100 µM (inactive) | > 100 µM (inactive) | 41.4 µM (inactive) | – | > 100 µM (inactive) | > 100 µM (inactive) | > 100 µM (inactive) | > 100 µM (inactive) | > 100 µM (inactive) | > 100 µM (inactive)
9 | Cn1c2ccc(C3=NCCN3)cc2c2cc(C3=NCCN3)ccc21 | 38.7 µM (inactive) | 46.1 µM (inactive) | 37.9 µM (inactive) | > 100 µM (inactive) | 17 µM (inactive) | < 0.01 µM (active) | 7.82 µM (inactive) | 10.7 µM (inactive) | 1.56 µM (inactive) | – | 53.1 µM (inactive) | 5.38 µM (inactive) | 0.0775 µM (active) | 24 µM (inactive) | 33.5 µM (inactive) | 44.1 µM (inactive) | 42.8 µM (inactive) | 17.6 µM (inactive) | 0.0463 µM (active) | 18.2 µM (inactive)
10 | CSc1c(C(=O)Nc2ccccc2)c(N)nn1-c1ccccc1 | > 100 µM (inactive) | > 100 µM (inactive) | – | > 100 µM (inactive) | > 100 µM (inactive) | > 100 µM (inactive) | > 100 µM (inactive) | > 100 µM (inactive) | > 100 µM (inactive) | > 100 µM (inactive) | > 100 µM (inactive) | > 100 µM (inactive) | – | > 100 µM (inactive) | > 100 µM (inactive) | > 100 µM (inactive) | > 100 µM (inactive) | > 100 µM (inactive) | > 100 µM (inactive) | > 100 µM (inactive)
11 | CC(C)C(C/C=C1\CC(CO)(COC(=O)c2ccccc2)OC1=O)C(C)C (stereo not drawn) | 14.8 µM (inactive) | 15.8 µM (inactive) | 16.7 µM (inactive) | 21.7 µM (inactive) | 14.9 µM (inactive) | – | 19.1 µM (inactive) | 13.1 µM (inactive) | 17.5 µM (inactive) | 20.9 µM (inactive) | 21.2 µM (inactive) | 15.8 µM (inactive) | 21.6 µM (inactive) | 16.3 µM (inactive) | > 100 µM (inactive) | 28.1 µM (inactive) | 17.9 µM (inactive) | 18 µM (inactive) | 19 µM (inactive) | 16.8 µM (inactive)
12 | Clc1c(C(Cl)(Cl)Cl)nsc1N1CCCCC1 | 17.9 µM (inactive) | 33.9 µM (inactive) | 29.8 µM (inactive) | 18.3 µM (inactive) | 29.9 µM (inactive) | 16.6 µM (inactive) | 16 µM (inactive) | 31.3 µM (inactive) | 20.7 µM (inactive) | 26.1 µM (inactive) | 31 µM (inactive) | 33.6 µM (inactive) | – | 33 µM (inactive) | – | 27.9 µM (inactive) | 20.7 µM (inactive) | 32.4 µM (inactive) | 34 µM (inactive) | 13.5 µM (inactive)
13 | O=C(Cn1c2ccc(Br)cc2c2nc3ccccc3nc21)NNC(=O)NC1CCCCC1 | 44.3 µM (inactive) | 18.3 µM (inactive) | > 100 µM (inactive) | > 100 µM (inactive) | 65.8 µM (inactive) | – | – | 24.4 µM (inactive) | 37.4 µM (inactive) | 49 µM (inactive) | 44 µM (inactive) | 47.8 µM (inactive) | 72.8 µM (inactive) | 45.2 µM (inactive) | > 100 µM (inactive) | 50.7 µM (inactive) | 89.1 µM (inactive) | 33 µM (inactive) | 45.5 µM (inactive) | 52.2 µM (inactive)
14 | C=C(CN(C)C)C(=O)c1ccccc1OC | 13.9 µM (inactive) | > 67.8 µM (inactive) | 14.5 µM (inactive) | 17.4 µM (inactive) | 25.8 µM (inactive) | 3.23 µM (inactive) | 20.5 µM (inactive) | 20.7 µM (inactive) | 25.3 µM (inactive) | – | 18.2 µM (inactive) | 38.1 µM (inactive) | 2.04 µM (inactive) | 20.2 µM (inactive) | 14.4 µM (inactive) | 47.5 µM (inactive) | 44.4 µM (inactive) | 4.31 µM (inactive) | 25.2 µM (inactive) | 7.66 µM (inactive)
15 | CN(C)CCCN1c2ccccc2CCc2cc([N+](=O)[O-])ccc21 | 15.2 µM (inactive) | 19.9 µM (inactive) | 16.3 µM (inactive) | 16.6 µM (inactive) | 20.3 µM (inactive) | – | 15.3 µM (inactive) | 16.2 µM (inactive) | 17.5 µM (inactive) | 16.8 µM (inactive) | 15 µM (inactive) | 15 µM (inactive) | 15.7 µM (inactive) | – | 20 µM (inactive) | – | 16.9 µM (inactive) | – | 14.7 µM (inactive) | 17.7 µM (inactive)
